According to PubChem BioAssay (NCI):
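Assay format: 96-well plates, 48-hour exposure. Definition used: TGI = concentration required for complete inhibition of growth.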

What was measured:
Test in all cases: NCI tumour cell line growth inhibition, 48 h
[1] = tested on: HCT-116 colon
[2] = tested on: SK-MEL-5 melanoma
[3] = tested on: MOLT-4 leukemia
[4] = tested on: PC-3 prostate
[5] = tested on: UACC-62 melanoma
[6] = tested on: U251 CNS
[7] = tested on: IGROV1 ovarian
[8] = tested on: SW-620 colon
[9] = tested on: EKVX NSCLC
[10] = tested on: SN12C renal
[11] = tested on: HOP-62 NSCLC
[12] = tested on: MCF7 breast
[13] = tested on: A498 renal
[14] = tested on: MALME-3M melanoma
[15] = tested on: NCI/ADR-RES ovarian
[16] = tested on: SNB-75 CNS
[17] = tested on: HT29 colon
[18] = tested on: MDA-MB-435
[19] = tested on: M14 melanoma
[20] = tested on: SK-OV-3 ovarian
[21] = tested on: OVCAR-5 ovarian
[22] = tested on: NCI-H226 lung
[23] = tested on: OVCAR-3 ovarian
[24] = tested on: HS 578T breast
[25] = tested on: HOP-92 NSCLC
[26] = tested on: TK-10 renal
[27] = tested on: RPMI-8226 leukemia
[28] = tested on: DU-145 prostate
[29] = tested on: KM12 colon
[30] = tested on: MDA-MB-231 breast
[31] = tested on: K-562 leukemia
[32] = tested on: NCI-H23 lung
[33] = tested on: OVCAR-8 ovarian
[34] = tested on: NCI-H522 lung
[35] = tested on: SK-MEL-28 melanoma
[36] = tested on: COLO 205 colon
[37] = tested on: ACHN renal
[38] = tested on: OVCAR-4 ovarian
[39] = tested on: LOX IMVI melanoma
[40] = tested on: 786-0 renal
[41] = tested on: UO-31 renal
[42] = tested on: SR leukemia
[43] = tested on: MDA-N
[44] = tested on: SNB-19 CNS
[45] = tested on: SF-295 CNS
[46] = tested on: A549 NSCLC
[47] = tested on: HCT-15 colon
[48] = tested on: SF-268 CNS
[49] = tested on: SK-MEL-2 melanoma
[50] = tested on: CCRF-CEM leukemia

SMILES: Cc1ccc(/C=C2\NC(=S)N(CN3CCCCC3)C2=O)cc1
- TGI [1]: > 100 µM
- TGI [2]: > 100 µM
- TGI [3]: > 100 µM
- TGI [4]: > 100 µM
- TGI [5]: > 100 µM
- TGI [6]: > 100 µM
- TGI [7]: > 100 µM
- TGI [8]: > 100 µM
- TGI [9]: > 100 µM
- TGI [10]: > 100 µM
- TGI [11]: > 100 µM
- TGI [12]: > 100 µM
- TGI [13]: > 100 µM
- TGI [14]: > 100 µM
- TGI [15]: > 100 µM
- TGI [16]: > 100 µM
- TGI [17]: 72.7 µM
- TGI [18]: > 100 µM
- TGI [19]: > 100 µM
- TGI [20]: > 100 µM
- TGI [21]: > 100 µM
- TGI [22]: > 100 µM
- TGI [23]: > 100 µM
- TGI [24]: > 100 µM
- TGI [25]: 94.4 µM
- TGI [26]: > 100 µM
- TGI [27]: > 100 µM
- TGI [28]: > 100 µM
- TGI [29]: > 100 µM
- TGI [30]: > 100 µM
- TGI [31]: > 100 µM
- TGI [32]: > 100 µM
- TGI [33]: > 100 µM
- TGI [34]: > 100 µM
- TGI [35]: > 100 µM
- TGI [36]: 39.8 µM
- TGI [37]: > 100 µM
- TGI [38]: > 100 µM
- TGI [39]: > 100 µM
- TGI [40]: > 100 µM
- TGI [41]: > 100 µM
- TGI [42]: > 100 µM
- TGI [43]: > 100 µM
- TGI [44]: > 100 µM
- TGI [45]: > 100 µM
- TGI [46]: > 100 µM
- TGI [47]: > 100 µM
- TGI [48]: > 100 µM
- TGI [49]: > 100 µM
- TGI [50]: 86.7 µM
